Patent publication US5403862A, “Method for oral decorporation of metals” (priority 1992, dated 1995)

Assays:
[1] = Effect of 1 week oral feeding of TT-based chelons on total body and liver content of 241Am (Table 1); format: in vivo, rats; set-up: % Reduction in liver 241Am (Compared with controls): concentration or dose not given beside the values; details: for % Reduction in liver 241Am (Compared with controls): 1 week oral feeding, determined at necropsy; for % Reduction in total body 241Am (Before vs after chelon feeding): po, 168 h
Experimental: (§1) To test the ability of complexed chelons to move across membrane and cellular barriers, an assay has been developed that measures the intestinal passage of the chelons in closed duodenal segments in situ over a 3 hour period. […] Although there were differences in the rate at which some of these compounds moved through this tissue barrier, all were effective in Am removal in vivo as set forth in the following Table 1.
Effect of 1 week feeding of TT-based chelons on total
body and liver content of ^241 Am. Am was allowed to
incorporate for 1 week prior to oral chelon feeding.
Total body counts were taken before and after chelon feeding.
Liver values were determined at necropsy.

[2] = Distribution of 210Pb between water and chloroform after adding chelator; format: physicochemical
Experimental: In this example the ability of DMS(C8)2, from Example 17, and C12 DMS Et2, from Example 16 to move ^210 Pb between lipid and aqueous phases of chloroform and water mixture was measured. This would be an indicator of the ability of the chelator and the chelate-metal complex to penetrate lipophilic barriers.
^210 Pb was dissolved in water. C12 DMS Et2 and DMS(C8)2 were added and mixed for 10 minutes with chloroform. The solutions were mixed every several hours. The phases separated and the percentage of ^210 Pb found in the chloroform phase as a function of time was determined.

[3] = In vitro Pb binding and lipophilic character of C12 DMSA; format: physicochemical
Source text: As with the PACA's, the chain length could be changed and other functional groups could be added.

[4] = Reduction of 241Am whole body and organ burden by oral chelon administration (Table 2, Example 12); format: in vivo, Sprague-Dawley rats; details: 10 days oral treatment, 50 micro-mole/rat/day, vs controls; for % Reduction of 241Am, both femora / % Reduction of 241Am, carcass / % Reduction of 241Am, liver / % Reduction of 241Am, whole body: p <0.001 (C12TT, C22TT); for % Reduction of 241Am, one kidney: p >0.1 (C12TT, C22TT)
Experimental: ^a) Reduction = 100 - (% of initial activity in treated rats at
death/% of initial activity in controls at death); 9 Rats/Group; 10 Days
(§2) In vivo studies of the compounds of the present invention were performed. The effect of oral treatment on rats given an injection of 241Am was studied by a) comparing the reduction of an internal burden of 241Am from rats fed C12 TT or C22 TT with the natural biological retention of ^241 Am under condition of no chelation treatment; b) examination of histologic sections of tissues obtained from treated rats and c) by comparing the relative weight gain of treated rats and controls during the chelon feeding period. The effect of feeding C12 TT or C22 TT on the retention of ^241 Am was tested in 3 groups of 9 rats each. Sprague-Dawley rats (Simonson Labs., Gilroy, Cailf.), aged 60 days, were used in these studies. The animals were housed in groups of 3 or 4 until treatment was initiated. ^241 Am was given via the jugular vein as a single injection in citrate buffer of pH 3.5. One week later, rats were transferred to individual cages and feeding of the chelator was initiated. This delay allowed the nuclide to be incorporated firmly in the target organs, mostly liver and bone.
(§3) The first group served as untreated controls, the second and third groups received 50 micro-mole of C12 TT or C22 TT/rat or about 200 micro-mole/kg of body weight, respectively, in their daily ration of 25 g of rodent chow. On days 1 and 7 after injection and on days 3, 6 and 10 of chelation treatment, the total body retention of ^241 Am was measured using a whole body counter. The animals were necropsied after 10 days of oral chelation therapy and the femora, liver, 1 kidney, viscera and carcass with integument were counted for ^241 Am content. The other kidney and a sample of the small and large intestine were prepared for histological evaluation. Whole body retentions as a function of time were evaluated. Terminal organ retentions were measured after necropsy only. The reduction in whole body or organ retention due to oral chelation treatment was expressed as: [formula] both taken at the same time after treatment initiation. Results are shown in Table 2 above, which is incorporated into this Example by reference.

[5] = tested on: intestinal mucosa (duodenum and proximal jejunum); test: Intestinal tied-loop passage of 241Am complexes in situ; format: in vivo, rats; details: 241Am complex, 3 hours
Experimental: as §1
The ability of Am-citrate and ^241 Am-C12 TT to cross the intestinal mucosa in situ was measured using an intestinal tied-loop technique. Rats were anesthetized and a 18-20 cm segment of the duodenum and proximal jejunum was isolated and rinsed with cold saline. The most proximal portion of this segment was 1 cm distal to the pyloric junction. With the stability of the ^241 Am-complex established, known quantities of the corresponding complexes were introduced in vivo directly into the isolated and ligated segment. The animals remained anesthetized to allow for passage of the lipophilic compounds through the intestinal barrier into the body. After 3 hours, the rats were euthanized, the ligated section of the gut was excised and its lumen flushed with saline. Lumen wash, cleaned gut section, combined viscera, liver and the remaining carcass were counted separately. The 241Am found in the various parts was considered as representative of the distribution of the chelon.

red cells = test: Crenation-hemolysis test in fresh canine blood; format: cell-based; details: Ca chelate, 10 and 20 mg, 37° C., 1 hour and 4 hours
Experimental: Toxicity studies were performed as indicators of early gross toxicity. […] Therefore, the crenation-hemolysis tests were repeated with the highly purified C12 -and C22 -PACAs. Two ml aliquots of fresh canine blood, drawn with a heparinized syringe, were incubated at 37° C. with an equal volume of a 0.1M Tris-buffer containing 10 and 20 mg, respectively, of the Ca chelate of the two compounds whose osmolarity had been adjusted to 270-300 mOsm. After 1 hour and 4 hours of incubation, respectively, blood smears were prepared and examined microscopically and cells were sedimented.

[6] = Weight gain and histology of rats during oral chelon feeding; format: in vivo, Sprague-Dawley rats; details: 10 days oral feeding; controls 61.1+8.8 g
Experimental: as §2, with “The animals were housed in groups of 3 or 4 until treatment was initiated. ^241 Am was given via the jugular vein as a single injection in citrate buffer of pH 3.5. One week later, rats were transferred to individual cages and feeding of the chelator was initiated. This delay allowed the nuclide to be incorporated firmly in the target organs, mostly liver and bone.” left out
as §3, with “The other kidney and a sample of the small and large intestine were prepared for histological evaluation.” left out, “The reduction in whole body or organ retention due to oral chelation treatment was expressed as: [formula] both taken at the same time after treatment initiation. Results are shown in Table 2 above, which is incorporated into this Example by reference.” left out

[7] = Elimination of intravenously injected 241Am-complexed chelons by whole body counting and excreta; format: in vivo; details: intravenous
Experimental: In this example, animals were injected intravenously with ^241 Am-complexed C12 TT or K11 TT (K= terminally carboxylated alkyl series) and the rates of elimination from the body were determined. This was determined by whole body counting and counting of the excreta, both urine and feces. FIG. 2 illustrates the fraction of total body retention of the labeled chelating agents as a function of time after exposure. […] This example illustrates that modified polyaminocarboxylic acids have different organ targeting properties and different excretion pathways.

[8] = Reduction of 239Pu organ burden by oral administration of C22 TT (Table 5, Example 14); format: in vivo, Sprague-Dawley rats; details: 10 days in diet, starting 14 days after Pu, vs untreated
Experimental: Twelve young adult male rats (Sprague-Dawley rats from Simonsen Labs, Gilroy, Calif.) were given ^239 Pu by intravenous injection. Fourteen days later 6 of the animals were fed C22 TT in the diet while the other 6 animals were not fed the compound and served as controls. The delay in beginning the chelation treatment allowed the nuclide to be incorporated firmly in the target organs. After 10 days of feeding, the animals were sacrificed and the Pu content in 'select tissues was determined by liquid scintillation counting.
*100 × (1Pu in treated animals/Pu in untreated, control animals)

[9] = Solution behaviour / micelle formation of C22 TT; format: physicochemical
intestinal tract = details: dogs; cited from earlier work
[10] = known chelators; cited from earlier work
[11] = pH-titration at constant ionic strength; format: physicochemical; details: pH-titration in both directions
Experimental: For each compound, pH-titrations in both directions were carried out at constant ionic strength. All compounds were completely […] between pH 7.2 and 7.8 for the DT-series and 7.7 and 8.0 for the TT-series, pointing to the availability of all potential donor electrons derived from carboxyl oxygens--for complex or chelate formation similar to EDTA (pH 8.8) and DTPA (pH 6.7), the two model compounds known for their ability to chelate actinides and some other metals.

CCCCCCCCN(CCN(CCN(CCN(CC(=O)O)CC(=O)O)CC(=O)O)CC(=O)O)CC(=O)O [C8 TT]
% Reduction in liver 241Am (Compared with controls) [1]: -30.1 ± 10.0% | % Reduction in total body 241Am (Before vs after chelon feeding) [1]: -39.0 ± 6.3%

CCCCCCCCCCCCSC(C(=O)OCC)C(S)C(=O)OCC (centres unmarked) [C12 DMS Et2, S-Dodecyl dimercaptosuccinic acid diethyl ester]
Percentage of aqueous 210Pb found in chloroform phase, 15 min [2]: 36.5% | Percentage of aqueous 210Pb found in chloroform phase, 16 h [2]: 62.2%

CCCCCCCCCCCCSC(C(=O)O)C(S)C(=O)O (centres unmarked) [C12 DMSA, S-Dodecyl dimercaptosuccinic acid]
ability to bind Pb in vitro [3]: ability of this molecule to bind Pb is demonstrated in vitro | partial lipophilic character [3]: partial lipophilic character of this molecule has been established in vitro

CCCCCCCCCCCCN(CCN(CCN(CCN(CC(=O)O)CC(=O)O)CC(=O)O)CC(=O)O)CC(=O)O [C12 TT, 1-N-Dodecyl-triethylenetetramine pentaacetic acid]
% Reduction in liver 241Am (Compared with controls) [1]: -57.1 ± 0.1% | % Reduction in total body 241Am (Before vs after chelon feeding) [1]: -46.5 ± 4.0% | % Reduction of 241Am, both femora [4]: 17% | % Reduction of 241Am, carcass [4]: 20% | % Reduction of 241Am, liver [4]: 71% | % Reduction of 241Am, whole body [4]: 29% | % Reduction of 241Am, one kidney [4]: 24% | fraction found in carcass [5]: 20% | fraction found in liver [5]: 3% | fraction found in lumen and gut section [5]: 73% | fraction found in viscera [5]: 4% | appearance of sera / hemolysis (red cells): All sera were slightly pink in appearance | red cell crenation (red cells): No red cell crenation was observed | weight gain [6]: 55.7+11.1 g | excretion pathway [7]: via the liver, through the bile into the feces | rate of elimination from the body [7]: less rapidly excreted

CCCCCCCCCCCCCCCCCCCCCCN(CCN(CCN(CCN(CC(=O)O)CC(=O)O)CC(=O)O)CC(=O)O)CC(=O)O [C22 TT, 1-N-Docosyl-triethylenetetramine pentaacetic acid]
% Reduction in liver 241Am (Compared with controls) [1]: -47.9 ± 9.1% | % Reduction in total body 241Am (Before vs after chelon feeding) [1]: -45.7 ± 6.1% | % Reduction of 241Am, both femora [4]: 32% | % Reduction of 241Am, carcass [4]: 36% | % Reduction of 241Am, liver [4]: 89% | % Reduction of 241Am, whole body [4]: 44% | % Reduction of 241Am, one kidney [4]: 26% | % Reduction of 239Pu, liver ([8]; p <0.005): 71.1% | % Reduction of 239Pu, spleen ([8]; p <0.01): 16.9% | % Reduction of 239Pu, femora ([8]; p <0.375): 3.5% | % Reduction of 239Pu, lumbar vertebral bodies ([8]; p <0.375): 8.4% | appearance of sera / hemolysis (red cells): All sera were slightly pink in appearance | red cell crenation (red cells): No red cell crenation was observed | weight gain [6]: 70.2+11.6 g | solution clarity / micelle formation [9]: micelle formation

O=C([O-])CN(CCN(CC(=O)[O-])CC(=O)[O-])CCN(CC(=O)[O-])CC(=O)[O-].[Ca+2].[Na+].[Na+].[Na+] [Ca DTPA]
toxicity after frequent administration (intestinal tract): destruction of the epithelial lining and related structures of the intestinal tract followed by death

CCCCCCCCOC(=O)C(S)C(S)C(=O)OCCCCCCCC (centres unmarked) [DMS(C8)2, dimercaptosuccinic acid dioctyl ester]
Percentage of aqueous 210Pb found in chloroform phase, 15 min [2]: 32.2% | Percentage of aqueous 210Pb found in chloroform phase, 16 h [2]: 41.9%

O=C(O)C(S)C(S)C(=O)O (centres unmarked) [DMSA, 2,3dimercaptosuccinic acid]
effectiveness in removing lead [10]: effective for reducing blood levels of Pb, but has limited effectiveness in removing lead burdens from other organs, such as liver, brain and bone

O=C(O)CN(CCN(CC(=O)O)CC(=O)O)CCN(CC(=O)O)CC(=O)O [DTPA, diethylenetriamine pentaacetic acid]
pH of complete protonation [11]: 6.7

O=C(O)CN(CCN(CC(=O)O)CC(=O)O)CC(=O)O [EDTA, ethylenediaminetetraacetic acid]
pH of complete protonation [11]: 8.8 | effectiveness in removing lead [10]: effective in removing lead in the blood, but is not effective in removing lead which has penetrated the cells
